Experimental data from PubChem BioAssay (NCI).
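Five concentrations, 48 hours, 96-well plates. GI50 is the concentration that inhibits growth by half. The concentration for full growth arrest is given as TGI.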

Assays:
Test in all cases: inhibition of tumour cell growth, NCI panel, 48 h
OVCAR-5 ovarian = system: OVCAR-5 ovarian
UO-31 renal = system: UO-31 renal
NCI-H460 lung = system: NCI-H460 lung
TK-10 renal = system: TK-10 renal
DU-145 prostate = system: DU-145 prostate
SF-268 CNS = system: SF-268 CNS
BT-549 breast = system: BT-549 breast
MALME-3M melanoma = system: MALME-3M melanoma
OVCAR-4 ovarian = system: OVCAR-4 ovarian
ACHN renal = system: ACHN renal
EKVX NSCLC = system: EKVX NSCLC
K-562 leukemia = system: K-562 leukemia
SK-MEL-28 melanoma = system: SK-MEL-28 melanoma
MOLT-4 leukemia = system: MOLT-4 leukemia
MDA-MB-231 breast = system: MDA-MB-231 breast
U251 CNS = system: U251 CNS
NCI-H23 lung = system: NCI-H23 lung
UACC-62 melanoma = system: UACC-62 melanoma
SN12C renal = system: SN12C renal
PC-3 prostate = system: PC-3 prostate
HCT-15 colon = system: HCT-15 colon
786-0 renal = system: 786-0 renal
HS 578T breast = system: HS 578T breast
HCC-2998 colon = system: HCC-2998 colon
HT29 colon = system: HT29 colon
HL-60(TB) leukemia = system: HL-60(TB) leukemia
T-47D breast = system: T-47D breast
NCI/ADR-RES ovarian = system: NCI/ADR-RES ovarian
HOP-62 NSCLC = system: HOP-62 NSCLC
RXF 393 renal = system: RXF 393 renal
CCRF-CEM leukemia = system: CCRF-CEM leukemia
NCI-H522 lung = system: NCI-H522 lung
RPMI-8226 leukemia = system: RPMI-8226 leukemia
SK-OV-3 ovarian = system: SK-OV-3 ovarian
SW-620 colon = system: SW-620 colon
CAKI-1 renal = system: CAKI-1 renal
SK-MEL-2 melanoma = system: SK-MEL-2 melanoma
IGROV1 ovarian = system: IGROV1 ovarian
SNB-75 CNS = system: SNB-75 CNS
LOX IMVI melanoma = system: LOX IMVI melanoma
SR leukemia = system: SR leukemia
OVCAR-8 ovarian = system: OVCAR-8 ovarian
KM12 colon = system: KM12 colon
UACC-257 melanoma = system: UACC-257 melanoma
COLO 205 colon = system: COLO 205 colon
MCF7 breast = system: MCF7 breast
SNB-19 CNS = system: SNB-19 CNS
HCT-116 colon = system: HCT-116 colon
M14 melanoma = system: M14 melanoma
SF-295 CNS = system: SF-295 CNS
A549 NSCLC = system: A549 NSCLC
A498 renal = system: A498 renal
HOP-92 NSCLC = system: HOP-92 NSCLC
SK-MEL-5 melanoma = system: SK-MEL-5 melanoma

How did the GI50 (OVCAR-5 ovarian) turn out when `COc1cc(OC)c(/C=C/S(=O)(=O)Cc2ccc(OC)c(NCC(=O)NO)c2)c(OC)c1` was run?
Its GI50 is 53.5 nM.

What about the TGI (OVCAR-5 ovarian) of the same molecule?
Its TGI is over 100000 nM.

And the GI50 (UO-31 renal)?
Its GI50 is 72.3 nM.

What about the TGI (UO-31 renal) of the same molecule?
The TGI was over 100000 nM.

What about the GI50 (NCI-H460 lung) of the same molecule?
Its GI50 is 25.6 nM.

And the TGI (NCI-H460 lung)?
The TGI was over 100000 nM.

What about the GI50 (TK-10 renal) of the same molecule?
The GI50 was over 100000 nM.

And the TGI (TK-10 renal)?
Its TGI is over 100000 nM.

What about the GI50 (DU-145 prostate) of the same molecule?
Its GI50 is 39.5 nM.

And the TGI (DU-145 prostate)?
Its TGI is over 100000 nM.

What about the GI50 (SF-268 CNS) of the same molecule?
Its GI50 is 86.3 nM.

And the TGI (SF-268 CNS)?
The TGI was over 100000 nM.

What about the GI50 (BT-549 breast) of the same molecule?
Its GI50 is 22.1 nM.

What about the GI50 (MALME-3M melanoma) of the same molecule?
The GI50 was over 100000 nM.

And the TGI (MALME-3M melanoma)?
Its TGI is over 100000 nM.

And the GI50 (OVCAR-4 ovarian)?
Its GI50 is 46100 nM.

What about the TGI (OVCAR-4 ovarian) of the same molecule?
The TGI was over 100000 nM.

And the GI50 (ACHN renal)?
The GI50 was under 15.2 nM.

What about the TGI (ACHN renal) of the same molecule?
Its TGI is over 100000 nM.

What about the GI50 (EKVX NSCLC) of the same molecule?
The GI50 was 58 nM.

What about the TGI (EKVX NSCLC) of the same molecule?
The TGI was over 100000 nM.

And the GI50 (K-562 leukemia)?
The GI50 was under 10 nM.

What about the TGI (K-562 leukemia) of the same molecule?
Its TGI is over 100000 nM.

And the GI50 (SK-MEL-28 melanoma)?
Its GI50 is over 23700 nM.

What about the TGI (SK-MEL-28 melanoma) of the same molecule?
Its TGI is over 100000 nM.

What about the GI50 (MOLT-4 leukemia) of the same molecule?
Its GI50 is 41.5 nM.

And the TGI (MOLT-4 leukemia)?
Its TGI is over 100000 nM.

What about the GI50 (MDA-MB-231 breast) of the same molecule?
The GI50 was 45.7 nM.

What about the TGI (MDA-MB-231 breast) of the same molecule?
Its TGI is over 100000 nM.

What about the GI50 (U251 CNS) of the same molecule?
Its GI50 is 35.5 nM.

What about the TGI (U251 CNS) of the same molecule?
Its TGI is over 100000 nM.

What about the GI50 (NCI-H23 lung) of the same molecule?
Its GI50 is 41.4 nM.

What about the TGI (NCI-H23 lung) of the same molecule?
The TGI was over 100000 nM.

And the GI50 (UACC-62 melanoma)?
Its GI50 is under 10 nM.

What about the TGI (UACC-62 melanoma) of the same molecule?
Its TGI is over 100000 nM.

What about the GI50 (SN12C renal) of the same molecule?
The GI50 was 55.5 nM.

And the TGI (SN12C renal)?
The TGI was over 100000 nM.

And the GI50 (PC-3 prostate)?
The GI50 was 28.5 nM.

What about the TGI (PC-3 prostate) of the same molecule?
Its TGI is over 100000 nM.

What about the GI50 (HCT-15 colon) of the same molecule?
Its GI50 is 13.1 nM.

What about the TGI (HCT-15 colon) of the same molecule?
The TGI was over 100000 nM.

What about the GI50 (786-0 renal) of the same molecule?
The GI50 was 40.9 nM.

And the TGI (786-0 renal)?
The TGI was over 100000 nM.

What about the GI50 (HS 578T breast) of the same molecule?
Its GI50 is under 14.2 nM.

What about the TGI (HS 578T breast) of the same molecule?
Its TGI is over 100000 nM.

And the GI50 (HCC-2998 colon)?
Its GI50 is 34.6 nM.

What about the TGI (HCC-2998 colon) of the same molecule?
Its TGI is over 100000 nM.

What about the GI50 (HT29 colon) of the same molecule?
Its GI50 is 36.8 nM.

And the TGI (HT29 colon)?
Its TGI is 4840 nM.

And the GI50 (HL-60(TB) leukemia)?
Its GI50 is 19.1 nM.

And the TGI (HL-60(TB) leukemia)?
The TGI was 59.3 nM.

And the GI50 (T-47D breast)?
Its GI50 is 17800 nM.

What about the TGI (T-47D breast) of the same molecule?
Its TGI is over 100000 nM.

What about the GI50 (NCI/ADR-RES ovarian) of the same molecule?
Its GI50 is under 10 nM.

And the TGI (NCI/ADR-RES ovarian)?
The TGI was over 100000 nM.

What about the GI50 (HOP-62 NSCLC) of the same molecule?
Its GI50 is 47.2 nM.

What about the TGI (HOP-62 NSCLC) of the same molecule?
Its TGI is over 100000 nM.

And the GI50 (RXF 393 renal)?
Its GI50 is under 11 nM.

What about the TGI (RXF 393 renal) of the same molecule?
Its TGI is over 100000 nM.

What about the GI50 (CCRF-CEM leukemia) of the same molecule?
The GI50 was 41 nM.

What about the TGI (CCRF-CEM leukemia) of the same molecule?
Its TGI is over 100000 nM.

And the GI50 (NCI-H522 lung)?
The GI50 was under 10 nM.

What about the GI50 (RPMI-8226 leukemia) of the same molecule?
Its GI50 is 45 nM.

And the TGI (RPMI-8226 leukemia)?
Its TGI is over 100000 nM.

And the GI50 (SK-OV-3 ovarian)?
The GI50 was 69.7 nM.

What about the TGI (SK-OV-3 ovarian) of the same molecule?
The TGI was over 100000 nM.

What about the GI50 (SW-620 colon) of the same molecule?
Its GI50 is 27.9 nM.

And the TGI (SW-620 colon)?
The TGI was over 100000 nM.

And the GI50 (CAKI-1 renal)?
The GI50 was under 10 nM.

What about the TGI (CAKI-1 renal) of the same molecule?
Its TGI is over 100000 nM.

And the GI50 (SK-MEL-2 melanoma)?
Its GI50 is over 100000 nM.

What about the TGI (SK-MEL-2 melanoma) of the same molecule?
Its TGI is over 100000 nM.

And the GI50 (IGROV1 ovarian)?
The GI50 was 24.1 nM.

And the TGI (IGROV1 ovarian)?
Its TGI is over 100000 nM.

What about the GI50 (SNB-75 CNS) of the same molecule?
The GI50 was under 10 nM.

What about the TGI (SNB-75 CNS) of the same molecule?
Its TGI is 72.6 nM.

And the GI50 (LOX IMVI melanoma)?
Its GI50 is under 10 nM.

What about the TGI (LOX IMVI melanoma) of the same molecule?
The TGI was over 100000 nM.

What about the GI50 (SR leukemia) of the same molecule?
Its GI50 is under 10.4 nM.

What about the TGI (SR leukemia) of the same molecule?
Its TGI is over 100000 nM.

What about the GI50 (OVCAR-8 ovarian) of the same molecule?
Its GI50 is 35.6 nM.

And the TGI (OVCAR-8 ovarian)?
Its TGI is over 100000 nM.

What about the GI50 (KM12 colon) of the same molecule?
Its GI50 is 10.5 nM.

And the TGI (KM12 colon)?
Its TGI is over 100000 nM.

And the GI50 (UACC-257 melanoma)?
The GI50 was over 100000 nM.

What about the TGI (UACC-257 melanoma) of the same molecule?
Its TGI is over 100000 nM.

What about the GI50 (COLO 205 colon) of the same molecule?
The GI50 was 31.6 nM.

And the TGI (COLO 205 colon)?
Its TGI is 119 nM.

What about the GI50 (MCF7 breast) of the same molecule?
The GI50 was 14.2 nM.

And the TGI (MCF7 breast)?
Its TGI is over 100000 nM.

And the GI50 (SNB-19 CNS)?
The GI50 was 43.4 nM.

And the TGI (SNB-19 CNS)?
The TGI was over 100000 nM.

And the GI50 (HCT-116 colon)?
The GI50 was 19.8 nM.

What about the GI50 (M14 melanoma) of the same molecule?
Its GI50 is 22 nM.

And the TGI (M14 melanoma)?
Its TGI is over 100000 nM.

And the GI50 (SF-295 CNS)?
Its GI50 is under 10 nM.

And the TGI (SF-295 CNS)?
The TGI was over 100000 nM.

What about the GI50 (A549 NSCLC) of the same molecule?
Its GI50 is 36.4 nM.

And the TGI (A549 NSCLC)?
Its TGI is over 100000 nM.

And the GI50 (A498 renal)?
Its GI50 is under 10 nM.

And the TGI (A498 renal)?
Its TGI is 101 nM.

And the GI50 (HOP-92 NSCLC)?
Its GI50 is 77.7 nM.

And the TGI (HOP-92 NSCLC)?
Its TGI is over 100000 nM.

What about the GI50 (SK-MEL-5 melanoma) of the same molecule?
Its GI50 is 18.5 nM.

And the TGI (SK-MEL-5 melanoma)?
Its TGI is 182 nM.
